Results from US6770597B2, “Benzohydrazide derivatives as herbicides and desiccant compositions containing them” (Ishihara Sangyo Kaisha, Ltd., priority 2002, dated 2004).

Assays:
Format in all cases: in vivo
[1] = test system: ivyleaf morningglory (Ipomoea hederacea, IPOHE); assay: Greenhouse herbicide screen, post-emerge application, phytotoxicity rating; conditions: POST emergent, 14 days after application, scale 0-100
Procedure, shortened: (§1)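 Scoring at 14 days used a 0–100 scale, 100 being all plants dead, for weed control and crop injury alike. Rates ranged from 15 to 1000 g ai/ha, applied in acetone at 187 l/ha by track sprayer. Post-emerge treatment hit 2–3 leaf plants; pre-emerge treatment hit soil seeded one day earlier.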

[2] = test system: large crabgrass (Digitaria sanguinalis, DIGSA); assay: as above; conditions: POST emergent, 14 days after application, scale 0-100
Procedure, shortened: as §1

[3] = test system: sicklepod (Cassia obtusifolia, CASOB); assay: as above; conditions: POST emergent, 14 days after application, scale 0-100
Procedure, shortened: as §1

[4] = test system: johnsongrass (Sorghum halepense, SORHA); assay: as above; conditions: POST emergent, 14 days after application, scale 0-100
Procedure, shortened: as §1

[5] = test system: lambsquarters (Chenopodium album, CHEAL); assay: as above; conditions: POST emergent, 14 days after application, scale 0-100
Procedure, shortened: as §1

[6] = test system: common ragweed (Ambrosia artemisiifolia L., AMBEL); assay: as above; conditions: POST emergent, 14 days after application, scale 0-100
Procedure, shortened: as §1

[7] = test system: velvetleaf (Abutilon theophrasti, ABUTH); assay: as above; conditions: POST emergent, 14 days after application, scale 0-100
Procedure, shortened: as §1

[8] = test system: cocklebur (Xanthium strumarium, XANST); assay: as above; conditions: POST emergent, 14 days after application, scale 0-100
Procedure, shortened: as §1

[9] = test system: green foxtail (Setaria viridis, SETVI); assay: as above; conditions: POST emergent, 14 days after application, scale 0-100
Procedure, shortened: as §1

[10] = test system: redroot pigweed (Amaranthus retrofiexus, AMARE); assay: as above; conditions: POST emergent, 14 days after application
Procedure, shortened: as §1

[11] = test system: barnyardgrass (Echinochloa crus-galli, ECHCG); assay: as above; conditions: POST emergent, 14 days after application, scale 0-100
Procedure, shortened: as §1

[12] = test system: ivyleaf morningglory (Ipomoea hederacea, IPOHE); assay: Greenhouse herbicide screen, pre-emerge application, phytotoxicity rating; conditions: PRE emergent, 14 days after application, rating scale 0-100
Procedure, shortened: as §1

[13] = test system: large crabgrass (Digitaria sanguinalis, DIGSA); assay: as above; conditions: PRE emergent, 14 days after application, rating scale 0-100
Procedure, shortened: as §1

[14] = test system: sicklepod (Cassia obtusifolia, CASOB); assay: as above; conditions: PRE emergent, 14 days after application, rating scale 0-100
Procedure, shortened: as §1

[15] = test system: johnsongrass (Sorghum halepense, SORHA); assay: as above; conditions: PRE emergent, 14 days after application, rating scale 0-100
Procedure, shortened: as §1

[16] = test system: lambsquarters (Chenopodium album, CHEAL); assay: as above; conditions: PRE emergent, 14 days after application, rating scale 0-100
Procedure, shortened: as §1

[17] = test system: common ragweed (Ambrosia artemisiifolia L., AMBEL); assay: as above; conditions: PRE emergent, 14 days after application, rating scale 0-100
Procedure, shortened: as §1

[18] = test system: velvetleaf (Abutilon theophrasti, ABUTH); assay: as above; conditions: PRE emergent, 14 days after application, rating scale 0-100
Procedure, shortened: as §1

[19] = test system: cocklebur (Xanthium strumarium, XANST); assay: as above; conditions: PRE emergent, 14 days after application, rating scale 0-100
Procedure, shortened: as §1

[20] = test system: green foxtail (Setaria viridis, SETVI); assay: as above; conditions: PRE emergent, 14 days after application, rating scale 0-100
Procedure, shortened: as §1

[21] = test system: redroot pigweed (Amaranthus retrofiexus, AMARE); assay: as above; conditions: PRE emergent, 14 days after application, rating scale 0-100
Procedure, shortened: as §1

[22] = test system: barnyardgrass (Echinochloa crus-galli, ECHCG); assay: as above; conditions: PRE emergent, 14 days after application, rating scale 0-100
Procedure, shortened: as §1

[23] = test system: field corn (Zea mays L., var. Dekalb 535, CORN); assay: Greenhouse herbicide screen, pre-emerge application, crop damage rating; conditions: PRE emergent, 14 days after application, rating scale 0-100
From the text: (§2) A standard greenhouse herbicide activity screening system was used to evaluate the herbicidal efficacy and crop safety of these test compounds. Seven broadleaf weed species including redroot pigweed (Amaranthus retrofiexus, AMARE), velvetleaf (Abutilon theophrasti, ABUTH), sicklepod (Cassia obtusifolia, CASOB), ivyleaf morningglory (Ipomoea hederacea, IPOHE), lambsquarters (Chenopodium album, CHEAL), common ragweed (Ambrosia artemisiifolia L., AMBEL), and cocklebur (Xanthium strumarium, XANST) were used as test species. Four grass weed species including green foxtail (Setaria viridis, SETVI), barnyardgrass (Echinochloa crus-galli, ECHCG), johnsongrass (Sorghum halepense, SORHA), and large crabgrass (Digitaria sanguinalis, DIGSA) were also used. In addition, four crop species, field corn (Zea mays L., var. Dekalb 535, CORN), soybean (Glycine max L., var. Pella 86, SOY), upland rice (Oryza sp., var.Cocodrie, RICE) and wheat (Triticum aestivum L.) were included.
(§3) All plants were grown in 10 cm square plastic pots which were filled with a sandy loam soil mix. For pre-emerge tests, seeds were planted one day prior to application of the test compounds. For post-emerge tests, seeds were planted 8-21 days prior to the test to allow emergence and good foliage development prior to application of the test substances. At the time of the post-emerge application, plants of all species were usually at the 2-3 leaf stage of development.
(§4) All test compounds were dissolved in acetone and applied to the test units in a volume of 187 l/ha. Test materials were applied at rates ranging from 15 g ai/ha to 1000 g ai/ha using a track sprayer equipped with a TJ8001E even flow flat fan spray nozzle. Plants were arranged on a shelf so that the top of the canopy (post-emerge) or top of the soil surface (pre-emerge) was 40-45 cm below the nozzle. Pressurized air was used to force the test solution through the nozzle as it was mechanically advanced (via electrically driven chain drive) over the top of all test plants/pots. This application simulates a typical commercial field herbicide application.
(§5) Pre-emergence tests were top watered immediately after treatment to incorporate the test materials, then routinely top-watered for normal growth. Post-emerge test units were always bottom-watered.
(§6) At 14 days after application of the test materials, phytotoxicity ratings were recorded. A rating scale of 0-100 was used as previously described in Research Methods in Weed Science, 2nd edition, B. Truelove, Ed., Southern Weed Science Society, Auburn University, Auburn, Ala., 1977. Briefly, “0” corresponds to no damage and “100” corresponds to complete death of all plants in the test unit. This scale was used both to determine efficacy against weed species and damage to crop species. Herbicide activity data for various compounds of this invention, which are shown by compound No. in Tables 1-12, are shown in Tables 13 and 14.

[24] = test system: upland rice (Oryza sp., var.Cocodrie, RICE); assay: as above; conditions: PRE emergent, 14 days after application, rating scale 0-100
From the text: as §2, §3, §4, §5, §6

[25] = test system: field corn (Zea mays L., var. Dekalb 535, CORN); assay: Greenhouse herbicide screen, post-emerge application, crop damage rating; conditions: POST emergent, 14 days after application, scale 0-100
From the text: as §2, §3, §4, §5, §6

[26] = test system: upland rice (Oryza sp., var.Cocodrie, RICE); assay: as above; conditions: POST emergent, 14 days after application, scale 0-100
From the text: as §2, §3, §4, §5, §6

SMILES: CN(NC(=O)c1cc(-n2c(=O)cc(C(F)(F)F)n(C)c2=O)c(F)cc1Cl)c1ccccc1 [Compound 1-9]
- phytotoxicity rating IPOHE ([1]; 63 g ai/ha): 100
- phytotoxicity rating IPOHE ([1]; 250 g ai/ha): 100
- phytotoxicity rating DIGSA ([2]; 63 g ai/ha): 70
- phytotoxicity rating DIGSA ([2]; 250 g ai/ha): 95
- phytotoxicity rating CASOB ([3]; 63 g ai/ha): 80
- phytotoxicity rating CASOB ([3]; 250 g ai/ha): 95
- phytotoxicity rating SORHA ([4]; 63 g ai/ha): 75
- phytotoxicity rating SORHA ([4]; 250 g ai/ha): 99
- phytotoxicity rating CHEAL ([5]; 63 g ai/ha): 100
- phytotoxicity rating CHEAL ([5]; 250 g ai/ha): 100
- phytotoxicity rating AMBEL ([6]; 63 g ai/ha): 99
- phytotoxicity rating AMBEL ([6]; 250 g ai/ha): 100
- phytotoxicity rating ABUTH ([7]; 63 g ai/ha): 100
- phytotoxicity rating ABUTH ([7]; 250 g ai/ha): 100
- phytotoxicity rating XANST ([8]; 63 g ai/ha): 100
- phytotoxicity rating XANST ([8]; 250 g ai/ha): 100
- phytotoxicity rating SETVI ([9]; 63 g ai/ha): 60
- phytotoxicity rating SETVI ([9]; 250 g ai/ha): 95
- phytotoxicity rating AMARE ([10]; 63 g ai/ha, scale 0-100 (0 no damage, 100 complete death)): 100
- phytotoxicity rating AMARE ([10]; 250 g ai/ha, scale 0-100): 100
- phytotoxicity rating ECHCO ([11]; 63 g ai/ha): 98
- phytotoxicity rating ECHCO ([11]; 250 g ai/ha): 100
- phytotoxicity rating IPOHE ([12]; 63 g ai/ha): 60
- phytotoxicity rating IPOHE ([12]; 250 g ai/ha): 100
- phytotoxicity rating DIGSA ([13]; 63 g ai/ha): 50
- phytotoxicity rating DIGSA ([13]; 250 g ai/ha): 70
- phytotoxicity rating CASOB ([14]; 63 g ai/ha): 30
- phytotoxicity rating CASOB ([14]; 250 g ai/ha): 90
- phytotoxicity rating SORHA ([15]; 63 g ai/ha): 60
- phytotoxicity rating SORHA ([15]; 250 g ai/ha): 99
- phytotoxicity rating CHEAL ([16]; 63 g ai/ha): 99
- phytotoxicity rating CHEAL ([16]; 250 g ai/ha): 100
- phytotoxicity rating AMBEL ([17]; 63 g ai/ha): 50
- phytotoxicity rating AMBEL ([17]; 250 g ai/ha): 99
- phytotoxicity rating ABUTH ([18]; 63 g ai/ha): 95
- phytotoxicity rating ABUTH ([18]; 250 g ai/ha): 100
- phytotoxicity rating XANST ([19]; 63 g ai/ha): 20
- phytotoxicity rating XANST ([19]; 250 g ai/ha): 70
- phytotoxicity rating SETVI ([20]; 63 g ai/ha): 40
- phytotoxicity rating SETVI ([20]; 250 g ai/ha): 80
- phytotoxicity rating AMARE ([21]; 63 g ai/ha): 100
- phytotoxicity rating AMARE ([21]; 250 g ai/ha): 100
- phytotoxicity rating ECHCG ([22]; 63 g ai/ha): 40
- phytotoxicity rating ECHCG ([22]; 250 g ai/ha): 70
- crop damage rating CORN ([23]; 63 g ai/ha): 10
- crop damage rating CORN ([23]; 250 g ai/ha): 75
- crop damage rating RICE ([24]; 63 g ai/ha): 0
- crop damage rating RICE ([24]; 250 g ai/ha): 45
- crop damage rating CORN ([25]; 63 g ai/ha): 75
- crop damage rating CORN ([25]; 250 g ai/ha): 100
- crop damage rating RICE ([26]; 63 g ai/ha): 45
- crop damage rating RICE ([26]; 250 g ai/ha): 50
